Assay results from PubChem BioAssay AID1845196 (Molecular Pharmacology Branch, DTP, NCI, 2023).

Tested on: 292921-168-R tumor spheroid viability
Assay: Anticancer human tumor 292921-168-R patient-derived pancreatic carcinoma cell line growth inhibition
Conditions: spheroids with HUVEC and MSC; for viability, T/C: stronger effect = lower value
In short: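 Single agents and combinations were tested on spheroids built from tumor cells plus HUVEC and hMSC, at half-log dilutions starting at or near clinical Cmax, else 10 microM; final DMSO 0.25% (v/v).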

[1] = curve of first compound, second compound 1 µM
[2] = curve of first compound, second compound 3.16 µM
[3] = curve of first compound, second compound 10 µM
[4] = curve of first compound, second compound 31.6 µM
[5] = curve of first compound, second compound 100 µM
[6] = second compound 1 µM, first compound 0.0316 µM
[7] = second compound 1 µM, first compound 0.1 µM
[8] = second compound 1 µM, first compound 0.316 µM
[9] = second compound 1 µM, first compound 1 µM
[10] = second compound 1 µM, first compound 3.16 µM
[11] = second compound 1 µM, first compound 10 µM
[12] = second compound 3.16 µM, first compound 0.0316 µM
[13] = second compound 3.16 µM, first compound 0.1 µM
[14] = second compound 3.16 µM, first compound 0.316 µM
[15] = second compound 3.16 µM, first compound 1 µM
[16] = second compound 3.16 µM, first compound 3.16 µM
[17] = second compound 3.16 µM, first compound 10 µM
[18] = second compound 10 µM, first compound 0.0316 µM
[19] = second compound 10 µM, first compound 0.1 µM
[20] = second compound 10 µM, first compound 0.316 µM
[21] = second compound 10 µM, first compound 1 µM
[22] = second compound 10 µM, first compound 3.16 µM
[23] = second compound 10 µM, first compound 10 µM
[24] = second compound 31.6 µM, first compound 0.0316 µM
[25] = second compound 31.6 µM, first compound 0.1 µM
[26] = second compound 31.6 µM, first compound 0.316 µM
[27] = second compound 31.6 µM, first compound 1 µM
[28] = second compound 31.6 µM, first compound 3.16 µM
[29] = second compound 31.6 µM, first compound 10 µM
[30] = second compound 100 µM, first compound 0.0316 µM
[31] = second compound 100 µM, first compound 0.1 µM
[32] = second compound 100 µM, first compound 0.316 µM
[33] = second compound 100 µM, first compound 1 µM
[34] = second compound 100 µM, first compound 3.16 µM
[35] = second compound 100 µM, first compound 10 µM
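Note: spheroids exposed to compounds for 7 days.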

Cn1ncnc1[C@H]1c2n[nH]c(=O)c3cc(F)cc(c23)N[C@@H]1c1ccc(F)cc1 + Cn1nnc2c(C(N)=O)ncn2c1=O
IC50 [1]: 0.393 µM | IC50 [2]: 0.439 µM | IC50 [3]: 0.143 µM | IC50 [4]: 0.019 µM | IC50 [5]: < 0.00949 µM | viability, T/C (second compound 1 µM, first compound 0.00949 µM): 88.4% | viability, T/C (second compound 1 µM, first compound 0.03 µM): 81.3% | viability, T/C (second compound 1 µM, first compound 0.0949 µM): 73.8% | viability, T/C (second compound 1 µM, first compound 0.3 µM): 58.8% | viability, T/C (second compound 1 µM, first compound 0.949 µM): 27.7% | viability, T/C (second compound 1 µM, first compound 3 µM): 9.76% | viability, T/C (second compound 3.16 µM, first compound 0.00949 µM): 81.1% | viability, T/C (second compound 3.16 µM, first compound 0.03 µM): 82% | viability, T/C (second compound 3.16 µM, first compound 0.0949 µM): 73% | viability, T/C (second compound 3.16 µM, first compound 0.3 µM): 59.5% | viability, T/C (second compound 3.16 µM, first compound 0.949 µM): 32% | viability, T/C (second compound 3.16 µM, first compound 3 µM): 11.1% | viability, T/C (second compound 10 µM, first compound 0.00949 µM): 75.1% | viability, T/C (second compound 10 µM, first compound 0.03 µM): 68.1% | viability, T/C (second compound 10 µM, first compound 0.0949 µM): 55.8% | viability, T/C (second compound 10 µM, first compound 0.3 µM): 39.2% | viability, T/C (second compound 10 µM, first compound 0.949 µM): 23.3% | viability, T/C (second compound 10 µM, first compound 3 µM): 9.97% | viability, T/C (second compound 31.6 µM, first compound 0.00949 µM): 58.4% | viability, T/C (second compound 31.6 µM, first compound 0.03 µM): 44.4% | viability, T/C (second compound 31.6 µM, first compound 0.0949 µM): 31.9% | viability, T/C (second compound 31.6 µM, first compound 0.3 µM): 24% | viability, T/C (second compound 31.6 µM, first compound 0.949 µM): 15.8% | viability, T/C (second compound 31.6 µM, first compound 3 µM): 8.83% | viability, T/C (second compound 100 µM, first compound 0.00949 µM): 24.2% | viability, T/C (second compound 100 µM, first compound 0.03 µM): 19.3% | viability, T/C (second compound 100 µM, first compound 0.0949 µM): 17.4% | viability, T/C (second compound 100 µM, first compound 0.3 µM): 14.6% | viability, T/C (second compound 100 µM, first compound 0.949 µM): 11.7% | viability, T/C (second compound 100 µM, first compound 3 µM): 7.45%

[2H]c1nc(C)nc([2H])c1-c1cc(NC[C@@H](C)c2cccc3c(C(=O)NC)ccnc23)ncn1 + Cn1nnc2c(C(N)=O)ncn2c1=O
IC50 [1]: > 10 µM | IC50 [2]: > 10 µM | IC50 [3]: > 10 µM | IC50 [4]: > 10 µM | IC50 [5]: > 10 µM | viability, T/C [6]: 92.5% | viability, T/C [7]: 99.7% | viability, T/C [8]: 93.5% | viability, T/C [9]: 76.6% | viability, T/C [10]: 91.5% | viability, T/C [11]: 71.8% | viability, T/C [12]: 91% | viability, T/C [13]: 91.5% | viability, T/C [14]: 90.6% | viability, T/C [15]: 93.7% | viability, T/C [16]: 88.7% | viability, T/C [17]: 77.4% | viability, T/C [18]: 89.2% | viability, T/C [19]: 86.4% | viability, T/C [20]: 87.3% | viability, T/C [21]: 93.7% | viability, T/C [22]: 87.4% | viability, T/C [23]: 79.6% | viability, T/C [24]: 86.4% | viability, T/C [25]: 87.1% | viability, T/C [26]: 86.9% | viability, T/C [27]: 86.1% | viability, T/C [28]: 89.4% | viability, T/C [29]: 75.4% | viability, T/C [30]: 81.4% | viability, T/C [31]: 81.5% | viability, T/C [32]: 84.1% | viability, T/C [33]: 81.2% | viability, T/C [34]: 79.1% | viability, T/C [35]: 70.6%

COc1ccc([C@@H](O)c2cc(-c3ncnc4cc(N5CCOCC5)ccc34)c(F)cc2Cl)nn1 + Cn1nnc2c(C(N)=O)ncn2c1=O
IC50 [1]: 1.23 µM | IC50 [2]: 1.47 µM | IC50 [3]: 1.29 µM | IC50 [4]: 1.14 µM | IC50 [5]: 0.899 µM | viability, T/C [6]: 96.4% | viability, T/C [7]: 91.1% | viability, T/C [8]: 70.9% | viability, T/C [9]: 55.5% | viability, T/C [10]: 32.5% | viability, T/C [11]: 17.9% | viability, T/C [12]: 101% | viability, T/C [13]: 95.5% | viability, T/C [14]: 82.2% | viability, T/C [15]: 60.1% | viability, T/C [16]: 31.6% | viability, T/C [17]: 19% | viability, T/C [18]: 97.5% | viability, T/C [19]: 91.6% | viability, T/C [20]: 84.9% | viability, T/C [21]: 51% | viability, T/C [22]: 35.5% | viability, T/C [23]: 18.2% | viability, T/C [24]: 95.5% | viability, T/C [25]: 92.5% | viability, T/C [26]: 81.5% | viability, T/C [27]: 51.2% | viability, T/C [28]: 30.4% | viability, T/C [29]: 18.6% | viability, T/C [30]: 93% | viability, T/C [31]: 88.5% | viability, T/C [32]: 77.7% | viability, T/C [33]: 45% | viability, T/C [34]: 30.4% | viability, T/C [35]: 18.9%

CC[C@@]1(O)C(=O)OCc2c1cc1n(c2=O)Cc2cc3c(CN(C)C)c(O)ccc3nc2-1
viability, T/C (compound 0.003 µM): 94.9% [middle of 10 runs] | viability, T/C (compound 0.00949 µM): 77.4% [middle of 10 runs] | viability, T/C (compound 0.03 µM): 36.8% [middle of 10 runs] | viability, T/C (compound 0.0949 µM): 12.2% [middle of 10 runs] | viability, T/C (compound 0.3 µM): 4.45% [middle of 10 runs] | IC50 (compound alone, run of 10/17/2019): 19.4 nM [middle of 5 runs] | IC50 (compound alone, run of 10/25/2019): 22.6 nM [middle of 4 runs]
